Experimental data published in patent US10238670B2, “9-aminomethyl minocycline compounds and methods of use thereof in urinary tract infection (UTI) treatment” (Paratek Pharmaceuticals, Inc., priority 2016, dated 2019).

How the values were obtained:
Assay in all cases: In vitro MIC, 2010 surveillance isolates
A. baumanii = format: cell-based; conditions: for % R (resistance): CLSI breakpoints
K. oxytoca = format: cell-based
E. coli ESBL− = format: cell-based, Escherichia coli
MS CoNS = format: cell-based, Coagulase-Negative Staphylococcus
E. faecium VNS = format: cell-based
MSSA = format: cell-based
MRSA = format: cell-based
K. pneumoniae ESBL− = format: cell-based, Klebsiella pneumoniae
E. faecium VS = format: cell-based
MR CoNS = format: cell-based, Coagulase-Negative Staphylococcus
K. pneumoniae ESBL+ = format: cell-based, Klebsiella pneumoniae
Acinetobacter spp = format: cell-based; conditions: for % R (resistance): CLSI breakpoints
E. cloacae CeftazS = format: cell-based
Enterobacter spp = format: cell-based
E. cloacae CeftazR = format: cell-based
E. faecalis VNS = format: cell-based
E. faecalis VS = format: cell-based
E. coli ESBL+ = format: cell-based, Escherichia coli

With piperacillin-tazobactam [Pip/tazo] the MIC90 (A. baumanii; Asia/Pac, N=275) was > 64 µg/mL, the MIC90 (A. baumanii; Europe, N=145) was > 64 µg/mL and the “% R (resistance)” value (A. baumanii; L. Amer) was 88.7%. For the same substance, the MIC90 (A. baumanii; L. Amer, N=275) was > 64 µg/mL, the “% R (resistance)” value (A. baumanii; N America) was 70.1% and the MIC90 (A. baumanii; N America, N=154) was > 64 µg/mL. The “% R (resistance)” value (K. oxytoca; Asia/Pac, Eucast breakpoints) was 17.6%, the MIC90 (K. oxytoca; Asia/Pac, N=17) was 64 µg/mL and the “% R (resistance)” value (K. oxytoca; Europe, Eucast breakpoints) was 13.3%. For the same substance, the MIC90 (K. oxytoca; Europe, N=158) was > 64 µg/mL, the “% R (resistance)” value (K. oxytoca; L. Amer, CLSI breakpoints) was 16% and the MIC90 (K. oxytoca; L. Amer, N=25) was > 64 µg/mL. The “% R (resistance)” value (K. oxytoca; N America, CLSI breakpoints) was 7.9%, the MIC90 (K. oxytoca; N America, N=177) was 16 µg/mL and the “% R (resistance)” value (E. coli ESBL−; Asia/Pac, Eucast breakpoints) was 2.5%. The MIC90 (E. coli ESBL−; Asia/Pac, N=282) was 4 µg/mL, the “% R (resistance)” value (E. coli ESBL−; Europe, Eucast breakpoints) was 5.3% and the MIC90 (E. coli ESBL−; Europe, N=1533) was 4 µg/mL. For the same substance, the “% R (resistance)” value (E. coli ESBL−; L. Amer, CLSI breakpoints) was 1.5%, the MIC90 (E. coli ESBL−; L. Amer, N=389) was 4 µg/mL and the “% R (resistance)” value (E. coli ESBL−; N America, CLSI breakpoints) was 0.9%. For the same substance, the MIC90 (E. coli ESBL−; N America, N=1172) was 4 µg/mL, the “% R (resistance)” value (MS CoNS; Asia/Pac, Eucast breakpoints) was 0% and the MIC90 (MS CoNS; Asia/Pac, N=18) was 1 µg/mL. The “% R (resistance)” value (MS CoNS; Europe, Eucast breakpoints) was 0%, the MIC90 (MS CoNS; Europe, N=185) was ≤ 0.5 µg/mL and the “% R (resistance)” value (MS CoNS; L. Amer, CLSI breakpoints) was 0%. The MIC90 (MS CoNS; L. Amer, N=67) was 1 µg/mL, the “% R (resistance)” value (MS CoNS; N America, CLSI breakpoints) was 0% and the MIC90 (MS CoNS; N America, N=191) was ≤ 0.5 µg/mL. For the same substance, the MIC90 (E. faecium VNS; Asia/Pac, N=24) was > 64 µg/mL, the MIC90 (E. faecium VNS; Europe, N=71) was > 64 µg/mL and the MIC90 (E. faecium VNS; L. Amer, N=41) was > 64 µg/mL. The MIC90 (E. faecium VNS; N America, N=478) was > 64 µg/mL, the “% R (resistance)” value (MSSA; Asia/Pac, Eucast breakpoints) was 0% and the MIC90 (MSSA; Asia/Pac, N=641) was 2 µg/mL. For the same substance, the “% R (resistance)” value (MSSA; Europe, Eucast breakpoints) was 0%, the MIC90 (MSSA; Europe, N=2109) was 2 µg/mL and the “% R (resistance)” value (MSSA; L. Amer, CLSI breakpoints) was 0.2%. The MIC90 (MSSA; L. Amer, N=590) was 2 µg/mL, the “% R (resistance)” value (MSSA; N America, CLSI breakpoints) was 0.1% and the MIC90 (MSSA; N America, N=2373) was 2 µg/mL. For the same substance, the “% R (resistance)” value (MRSA; Asia/Pac, Eucast breakpoints) was 100%, the MIC90 (MRSA; Asia/Pac, N=428) was > 64 µg/mL and the “% R (resistance)” value (MRSA; Europe, Eucast breakpoints) was 100%. For the same substance, the MIC90 (MRSA; Europe, N=750) was > 64 µg/mL, the “% R (resistance)” value (MRSA; L. Amer, CLSI breakpoints) was 100% and the MIC90 (MRSA; L. Amer, N=506) was > 64 µg/mL. For the same substance, the “% R (resistance)” value (MRSA; N America, CLSI breakpoints) was 100%, the MIC90 (MRSA; N America, N=2508) was 64 µg/mL and the “% R (resistance)” value (K. pneumoniae ESBL−; Asia/Pac, Eucast breakpoints) was 2.1%. For the same substance, the MIC90 (K. pneumoniae ESBL−; Asia/Pac, N=189) was 8 µg/mL, the “% R (resistance)” value (K. pneumoniae ESBL−; Europe, Eucast breakpoints) was 0% and the MIC90 (K. pneumoniae ESBL−; Europe, N=361) was 8 µg/mL. The “% R (resistance)” value (K. pneumoniae ESBL−; L. Amer, CLSI breakpoints) was 1.9%, the MIC90 (K. pneumoniae ESBL−; L. Amer, N=160) was 4 µg/mL and the “% R (resistance)” value (K. pneumoniae ESBL−; N America, CLSI breakpoints) was 0.7%. The MIC90 (K. pneumoniae ESBL−; N America, N=671) was 8 µg/mL, the MIC90 (E. faecium VS; Asia/Pac, N=106) was > 64 µg/mL and the MIC90 (E. faecium VS; Europe, N=303) was > 64 µg/mL. The MIC90 (E. faecium VS; L. Amer, N=51) was > 64 µg/mL, the MIC90 (E. faecium VS; N America, N=115) was > 64 µg/mL and the “% R (resistance)” value (MR CoNS; Asia/Pac, Eucast breakpoints) was 100%. The MIC90 (MR CoNS; Asia/Pac, N=77) was > 64 µg/mL, the “% R (resistance)” value (MR CoNS; Europe, Eucast breakpoints) was 100% and the MIC90 (MR CoNS; Europe, N=510) was > 64 µg/mL. For the same substance, the “% R (resistance)” value (MR CoNS; L. Amer, CLSI breakpoints) was 100%, the MIC90 (MR CoNS; L. Amer, N=301) was > 64 µg/mL and the “% R (resistance)” value (MR CoNS; N America, CLSI breakpoints) was 100%. For the same substance, the MIC90 (MR CoNS; N America, N=461) was 16 µg/mL, the “% R (resistance)” value (K. pneumoniae ESBL+; Asia/Pac, Eucast breakpoints) was 47.6% and the MIC90 (K. pneumoniae ESBL+; Asia/Pac, N=124) was > 64 µg/mL. The “% R (resistance)” value (K. pneumoniae ESBL+; Europe, Eucast breakpoints) was 57%, the MIC90 (K. pneumoniae ESBL+; Europe, N=151) was > 64 µg/mL and the “% R (resistance)” value (K. pneumoniae ESBL+; L. Amer, CLSI breakpoints) was 51.7%. For the same substance, the MIC90 (K. pneumoniae ESBL+; L. Amer, N=209) was > 64 µg/mL, the “% R (resistance)” value (K. pneumoniae ESBL+; N America, CLSI breakpoints) was 51.9% and the MIC90 (K. pneumoniae ESBL+; N America, N=108) was > 64 µg/mL. For the same substance, the MIC90 (Acinetobacter spp; Europe, N=43) was > 64 µg/mL, the “% R (resistance)” value (Acinetobacter spp; L. Amer) was 55.6% and the “% R (resistance)” value (Acinetobacter spp; N America) was 19%. For the same substance, the MIC90 (Acinetobacter spp; N America, N=42) was > 64 µg/mL, the “% R (resistance)” value (E. cloacae CeftazS; Asia/Pac, Eucast breakpoints) was 1% and the MIC90 (E. cloacae CeftazS; Asia/Pac, N=100) was 4 µg/mL. For the same substance, the “% R (resistance)” value (E. cloacae CeftazS; Europe, Eucast breakpoints) was 1.1%, the MIC90 (E. cloacae CeftazS; Europe, N=183) was 4 µg/mL and the “% R (resistance)” value (E. cloacae CeftazS; L. Amer, CLSI breakpoints) was 3.5%. For the same substance, the MIC90 (E. cloacae CeftazS; L. Amer, N=57) was 16 µg/mL, the “% R (resistance)” value (E. cloacae CeftazS; N America, CLSI breakpoints) was 0.5% and the MIC90 (E. cloacae CeftazS; N America, N=210) was 4 µg/mL. The “% R (resistance)” value (Enterobacter spp; Asia/Pac, Eucast breakpoints) was 19.2%, the MIC90 (Enterobacter spp; Asia/Pac, N=52) was 32 µg/mL and the “% R (resistance)” value (Enterobacter spp; Europe, Eucast breakpoints) was 32.9%. The MIC90 (Enterobacter spp; Europe, N=82) was 64 µg/mL, the “% R (resistance)” value (Enterobacter spp; L. Amer, CLSI breakpoints) was 7.1% and the MIC90 (Enterobacter spp; L. Amer, N=42) was 64 µg/mL. The “% R (resistance)” value (Enterobacter spp; N America, CLSI breakpoints) was 4%, the MIC90 (Enterobacter spp; N America, N=101) was 64 µg/mL and the “% R (resistance)” value (E. cloacae CeftazR; Asia/Pac, Eucast breakpoints) was 55.6%. The MIC90 (E. cloacae CeftazR; Asia/Pac, N=63) was > 64 µg/mL, the “% R (resistance)” value (E. cloacae CeftazR; Europe, Eucast breakpoints) was 62.5% and the MIC90 (E. cloacae CeftazR; Europe, N=72) was > 64 µg/mL. For the same substance, the “% R (resistance)” value (E. cloacae CeftazR; L. Amer, CLSI breakpoints) was 23.8%, the MIC90 (E. cloacae CeftazR; L. Amer, N=42) was > 64 µg/mL and the “% R (resistance)” value (E. cloacae CeftazR; N America, CLSI breakpoints) was 48.1%. The MIC90 (E. cloacae CeftazR; N America, N=77) was > 64 µg/mL, the “range of MICs (N <10, shown instead of MIC90)” value (from here on “range of MICs”) (E. faecalis VNS; Asia/Pac, N=1) was 8 and the “% R (resistance)” value (E. faecalis VNS; Europe, Eucast breakpoints) was 0%. The “range of MICs” value (E. faecalis VNS; Europe, N=8) was 4-16, the “% R (resistance)” value (E. faecalis VNS; L. Amer, CLSI breakpoints) was 0% and the “range of MICs” value (E. faecalis VNS; L. Amer, N=7) was 4-8. For the same substance, the “% R (resistance)” value (E. faecalis VNS; N America, CLSI breakpoints) was 0%, the MIC90 (E. faecalis VNS; N America, N=38) was 8 µg/mL and the “% R (resistance)” value (E. faecalis VS; Asia/Pac, Eucast breakpoints) was 0%. The MIC90 (E. faecalis VS; Asia/Pac, N=214) was 8 µg/mL, the “% R (resistance)” value (E. faecalis VS; Europe, Eucast breakpoints) was 0% and the MIC90 (E. faecalis VS; Europe, N=669) was 8 µg/mL. The “% R (resistance)” value (E. faecalis VS; L. Amer, CLSI breakpoints) was 0%, the MIC90 (E. faecalis VS; L. Amer, N=290) was 8 µg/mL and the “% R (resistance)” value (E. faecalis VS; N America, CLSI breakpoints) was 0%. For the same substance, the MIC90 (E. faecalis VS; N America, N=863) was 8 µg/mL, the “% R (resistance)” value (E. coli ESBL+; Asia/Pac, Eucast breakpoints) was 7.3% and the MIC90 (E. coli ESBL+; Asia/Pac, N=219) was 16 µg/mL. The “% R (resistance)” value (E. coli ESBL+; Europe, Eucast breakpoints) was 24.1%, the MIC90 (E. coli ESBL+; Europe, N=274) was > 64 µg/mL and the “% R (resistance)” value (E. coli ESBL+; L. Amer, CLSI breakpoints) was 7.7%. The MIC90 (E. coli ESBL+; L. Amer, N=168) was 64 µg/mL, the “% R (resistance)” value (E. coli ESBL+; N America, CLSI breakpoints) was 6% and the MIC90 (E. coli ESBL+; N America, N=134) was 64 µg/mL.
